Test results reported in patent US11116210B2 (priority 2017, dated 2021).

Test system: Female mosquitoes, Aedes aegypti
Assay: Y-tube olfactometer insect repellency assay
Assay type: in vivo
Set-up: key to Significance (attraction vs Control): NS—not significant; *, ** - significantly different; *, ** - significantly different
Details: 98%

## CCN(CC)C(=O)c1cccc(C)c1 [DEET, N,N-diethyl-3-methylbenzamide]
  insect repellency, in words: strongest repellency
Vs mineral oil control
  Significance (attraction vs Control): **
